Experimental data reported in PMC10568461, “A pilot study of cerebral metabolism and serotonin 5-HT2A receptor occupancy in rats treated with the psychedelic tryptamine DMT in conjunction with the MAO inhibitor harmine” (Frontiers in Pharmacology, 2023).

Experiments:
[1] = target: T1, serotonin 5-HT2A receptors (Rattus norvegicus, UniProt P14842); assay: Ex vivo occupancy at frontal cortex 5-HT2A receptors with [^18F]MH.MZ (experiment 2); format: in vivo; conditions: Experiment 2, [^18F]MH.MZ
T1 construct: from tissue; host or cells: rat frontal cortex (living rat brain, measured ex vivo after in vivo radioligand injection)
T1 sequence (P14842 whole entry): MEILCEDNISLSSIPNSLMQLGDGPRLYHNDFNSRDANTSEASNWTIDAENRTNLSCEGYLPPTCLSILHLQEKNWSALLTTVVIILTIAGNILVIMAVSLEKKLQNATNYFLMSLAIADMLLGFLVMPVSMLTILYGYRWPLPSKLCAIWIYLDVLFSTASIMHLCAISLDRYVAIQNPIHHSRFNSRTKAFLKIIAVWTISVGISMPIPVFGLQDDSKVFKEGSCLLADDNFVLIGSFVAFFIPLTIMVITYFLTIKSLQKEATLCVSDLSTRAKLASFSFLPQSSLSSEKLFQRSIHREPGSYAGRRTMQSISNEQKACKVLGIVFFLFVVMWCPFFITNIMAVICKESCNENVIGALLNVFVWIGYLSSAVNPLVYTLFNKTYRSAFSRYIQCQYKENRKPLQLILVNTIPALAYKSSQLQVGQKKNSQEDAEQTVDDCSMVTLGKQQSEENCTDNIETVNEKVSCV
Method: Animals were lightly sedated using 2% isoflurane in pure oxygen at 20 min post DMT injection, whereupon they received a 0.2 mL intravenous injection of [^18F]MH.MZ diluted in saline to a radiochemical concentration of approximately 20 MBq/mL. Rats then returned to their home cage with withdrawal of anesthesia. After 45 min, rats were sacrificed by decapitation, and the brains dissected into cerebellum and frontal cortex samples for radioactivity measurement and chemical analysis, thus 65 min after harmine + DMT. The gamma-activity in weighed samples of cerebellum and frontal cortex regions was counted with a Packard Cobra gamma counter (GMI, Ramsey, Minnesota, US), as previously reported ([Bærentzen et al., 2019]). As with [^3H]ketanserin, the occupancy at [^18F]MH.MZ binding sites in frontal cortex was calculated from the specific binding ratio (cortex-cerebellum)/cerebellum) measured in the saline control and treatment groups.

[2] = system: rats; assay: Behavioural observations in treated rats; format: in vivo, rat; conditions: in some DMT- (and harmine-) treated rats; not systematically assessed
[3] = target: 5-HT2C receptors; set-up: method as in ref Lyon et al., 1988; Pierce and Peroutka, 1989; McKenna et al., 1990; Keiser et al., 2009; Ray, 2010; conditions: ref Lyon et al., 1988; Pierce and Peroutka, 1989; McKenna et al., 1990; Keiser et al., 2009; Ray, 2010; cited from earlier work
[4] = system: brain 5-HT2A receptors; conditions: calculated; humans, oral DMT and harmine; ref Koeck, 2015; cited from earlier work
[5] = system: serotonin 5-HT1A; set-up: method as in ref Lyon et al., 1988; Pierce and Peroutka, 1989; McKenna et al., 1990; Keiser et al., 2009; Ray, 2010; conditions: ref Lyon et al., 1988; Pierce and Peroutka, 1989; McKenna et al., 1990; Keiser et al., 2009; Ray, 2010; cited from earlier work
[6] = Brain concentrations of harmine, DMT and metabolites by UHPLC-MS after s.c. harmine and/or DMT; conditions: for concentration at 95 min / concentration at 65 min: rat, subcutaneous
Method: Groups of (n = 6) rats received either saline, harmine (1 mg/kg), DMT (1 mg/kg), or harmine + DMT (1 mg/kg each) as subcutaneous injections, as indicated in Figure 1.
After 45 min, rats were sacrificed by decapitation, and the brains dissected into cerebellum and frontal cortex samples for radioactivity measurement and chemical analysis, thus 65 min after harmine + DMT.

[7] = target: serotonin 5-HT2A receptors; set-up: method as in ref Lyon et al., 1988; Pierce and Peroutka, 1989; McKenna et al., 1990; Keiser et al., 2009; Ray, 2010; conditions: ref Lyon et al., 1988, Pierce and Peroutka, 1989, McKenna et al., 1990, Keiser et al., 2009, Ray, 2010, cited from earlier work
[8] = system: brain glucose metabolism; assay: [^18F]FDG-PET of cerebral glucose metabolism (experiment 1); format: in vivo, rat; conditions: for [^18F]FDG-PET SUV normalized to whole-brain uptake (SUVglob): 1 mg/kg s.c.; for [^18F]FDG-PET SUV normalized to whole-brain uptake (SUVglob) / [^18F]FDG-PET glucose normalized SUV (SUVgluc): mean (SD)
Method: The dynamic PET recordings were histogrammed into six frames of 5 minutes each, and reconstructed with attenuation, decay, and scatter correction using the OSEM3D/SP-MAP algorithm (2 x OSEM iterations and 18 x MAP iterations) with a matrix size of 128 × 128 pixels, resulting in a final target resolution of 0.8 mm/pixel. Pre-processing of PET scans was performed using PMOD v4.2 (PMOD Technologies LLC, Zurich, Switzerland). The [^18F]FDG images were averaged across the six frames and then converted into standardized uptake values (SUV), whereupon the image was cropped to the head of the animal and automatically co-registered to a standard [^18F]FDG-PET template. We used Schiffer’s atlas ([Schiffer et al., 2006]) for parcellation of bilateral brain regions within the cortico-striato-thalamo-cortical (CSTC) circuit, i.e. bilateral nucleus accumbens (NAc), medial prefrontal cortex (mPFC), orbitofrontal cortex (OFC), hippocampus, striatum, thalamus, visual cortex, cerebellum as a comparator region, and whole brain. We selected these regions from the CSTC circuit based on a conceptual model holding that the thalamus acts as a filter/gatekeeper of sensory information, broadcasting to cortical regions that subserve conscious experience ([Wang et al., 2006]; [McAlonan et al., 2008]). Perturbation of this CSTC circuit is implicated in the action of psychedelic compounds ([Geyer and Vollenweider, 2008]; [Preller et al., 2019]). We scaled individual regional SUV results to the mean blood glucose levels measured during the recording session (SUVgluc) and to the global [^18F]FDG uptake (SUVglob).

[9] = target: T1, serotonin 5-HT2A receptors; assay: Ex vivo occupancy at frontal cortex 5-HT2A receptors with [^3H]ketanserin (experiment 1); format: in vivo
Method: Groups of (n = 6) rats received either saline, harmine (1 mg/kg), DMT (1 mg/kg), or harmine + DMT (1 mg/kg each) as subcutaneous injections, as indicated in Figure 1. Approximately 5 minutes later, the animals were lightly anesthetized using (2% isoflurane in pure oxygen) and received [^3H]ketanserin (300 kBq; 740 MBq/µmol) as a bolus injection in 0.2 mL saline via a tail vein. […] At the conclusion of the PET recording, rats were sacrificed while still anesthetized, thus 95 min after drug administration. Terminal samples of cerebellum (non-binding reference tissue) and frontal cortex were transferred to preweighed 7 mL liquid scintillation vials, reweighed, and added with 0.9 mL of aqueous based solubilizer (Solvable, Perkin Elmer) for dissolution during 48 h at room temperature. Next, 7 mL of liquid scintillation counting cocktail (Ultima Gold™ XR, Perkin Elmer) was added to each sample, and the content of tritium (i.e., [^3H]ketanserin, cpm/mg) was measured by liquid scintillation counting (TRI-CARB, Perkin Elmer). We calculated the occupancy by DMT at frontal cortex 5-HT2A receptors for the three treatment groups relative to the specific binding ratio ([cortex-cerebellum]/cerebellum) for the control group.

Compound: CN(C)CCc1c[nH]c2ccccc12 [DMT, N,N-dimethyltryptamine]
- Occupancy at 5-HT2A sites ex vivo [1]: unable to detect any such occupancy
- Head twitch response [2]: observed the characteristic dose-dependent head twitch response
- IC50 [3]: 360 nM
- Ki [3]: 360 to 2630 nM
- Time of peak DMT occupancy post-administration [4]: 0.5 to 1.5 h
- IC50 [5]: 170 nM
- Ki [5]: 183 nM
- Percentage of total molar concentration of DMT and metabolites ([6]; Exp 1, group DMT, average of regions): 2.3%
- Percentage of total molar concentration of DMT and metabolites ([6]; Exp 1, group DMT, cerebellum): 2.0%
- Percentage of total molar concentration of DMT and metabolites ([6]; Exp 1, group DMT, front cort): 2.6%
- Percentage of total molar concentration of DMT and metabolites ([6]; Exp 1, group Har + DMT, average of regions): 33.9%
- Percentage of total molar concentration of DMT and metabolites ([6]; Exp 1, group Har + DMT, cerebellum): 32.9%
- Percentage of total molar concentration of DMT and metabolites ([6]; Exp 1, group Har + DMT, front cort): 34.7%
- Percentage of total molar concentration of DMT and metabolites ([6]; Exp 2, group Har + DMT, average of regions): 73.3%
- Percentage of total molar concentration of DMT and metabolites ([6]; Exp 2, group Har + DMT, cerebellum): 71.1%
- Percentage of total molar concentration of DMT and metabolites ([6]; Exp 2, group Har + DMT, front cort): 74.9%
- DMT detectable in brain ([6]; Experiment 1, after DMT alone (1 mg/kg)): Only traces
- Brain concentration ([6]; Experiment 1, cerebellum, group Har + DMT (1 mg/kg each s.c.), 95 min, mean (SD)): 105.1 (89.2) ng/g
- Brain concentration ([6]; Experiment 1, frontal cortex, group Har + DMT (1 mg/kg each s.c.), 95 min, mean (SD)): 149.5 (123.2) ng/g
- DMT/3-IAA ratio in brain ([6]; Experiment 1, harmine + DMT 1 mg/kg each): approximately 0.53
- Brain concentration ([6]; Experiment 2, cerebellum, group Har + DMT (3 mg/kg each s.c.), 65 min, mean (SD)): 1472.7 (369.2) ng/g
- Brain concentration ([6]; Experiment 2, frontal cortex, group Har + DMT (3 mg/kg each s.c.), 65 min, mean (SD)): 2122.7 (434.2) ng/g
- DMT/3-IAA ratio in brain ([6]; Experiment 2, harmine + DMT 3 mg/kg each): ~2.83
- Brain concentration after 3 mg/kg harmine + DMT relative to the lower harmine + DMT dose ([6]; Experiment 2 versus experiment 1): 14 fold
- Higher DMT concentration in frontal cortex compared to cerebellum ([6]; Experiments 1 and 2, harmine + DMT): 50%
- concentration at 95 min ([6]; brain (average of frontal cortex and cerebellum), 1 mg/kg, Molar concentration, Exp 1, group DMT, average of regions): 61.5 nM
- concentration at 95 min ([6]; brain (average of frontal cortex and cerebellum), Molar concentration, Exp 1, group Har + DMT, average of regions): 676 nM
- concentration at 65 min ([6]; brain (average of frontal cortex and cerebellum), Molar concentration, Exp 2, group Har + DMT, average of regions): 9550 nM
- concentration at 95 min ([6]; cerebellum, 1 mg/kg, Brain concentration, Experiment 1, cerebellum, group DMT (1 mg/kg s.c.), 95 min, mean (SD)): 8.7 ng/g
- concentration at 95 min ([6]; cerebellum, 1 mg/kg, Molar concentration, Exp 1, group DMT, cerebellum): 46 nM
- concentration at 95 min ([6]; cerebellum, Brain concentration, Experiment 1, cerebellum, after harmine + DMT (1 mg/kg each)): 600 nM
- concentration at 95 min ([6]; cerebellum, Brain concentration, Experiment 1, cerebellum, group Har (harmine 1 mg/kg s.c.), 95 min after drug, mean (SD)): 4.1 ng/g
- concentration at 95 min ([6]; cerebellum, Brain concentration, Experiment 1, cerebellum, group Har + DMT (1 mg/kg each s.c.), 95 min, mean (SD)): 105 ng/g
- concentration at 65 min ([6]; cerebellum, Brain concentration, Experiment 2, cerebellum, after harmine + DMT (3 mg/kg each)): 7800 nM
- concentration at 65 min ([6]; cerebellum, Brain concentration, Experiment 2, cerebellum, group Har + DMT (3 mg/kg each s.c.), 65 min, mean (SD)): 1470 ng/g
- concentration at 95 min ([6]; cerebellum, Molar concentration, Exp 1, group Har + DMT, cerebellum): 558 nM
- concentration at 65 min ([6]; cerebellum, Molar concentration, Exp 2, group Har + DMT, cerebellum): 7820 nM
- concentration at 95 min ([6]; frontal cortex, 1 mg/kg, Brain concentration, Experiment 1, frontal cortex, group DMT (1 mg/kg s.c.), 95 min, mean (SD)): 14.5 ng/g
- concentration at 95 min ([6]; frontal cortex, 1 mg/kg, Molar concentration, Exp 1, group DMT, front cort): 77.1 nM
- concentration at 95 min ([6]; frontal cortex, Brain concentration, Experiment 1, frontal cortex, after harmine + DMT (1 mg/kg each), 95 min): 800 nM
- concentration at 95 min ([6]; frontal cortex, Brain concentration, Experiment 1, frontal cortex, group Har (harmine 1 mg/kg s.c.), 95 min, mean (SD)): 4.8 ng/g
- concentration at 95 min ([6]; frontal cortex, Brain concentration, Experiment 1, frontal cortex, group Har + DMT (1 mg/kg each s.c.), 95 min, mean (SD)): 150 ng/g
- concentration at 65 min ([6]; frontal cortex, Brain concentration, Experiment 2, frontal cortex, after harmine + DMT (3 mg/kg each), 65 min): ≤ 11300 nM
- concentration at 65 min ([6]; frontal cortex, Brain concentration, Experiment 2, frontal cortex, group Har + DMT (3 mg/kg each s.c.), 65 min, mean (SD)): 2120 ng/g
- concentration at 95 min ([6]; frontal cortex, Molar concentration, Exp 1, group Har + DMT, front cort): 794 nM
- concentration at 65 min ([6]; frontal cortex, Molar concentration, Exp 2, group Har + DMT, front cort): 11300 nM
- IC50 ([7]; read-out: IC50 at 5-HT2A receptors in vitro): 75 to 360 nM
- Ki ([7]; read-out: Ki at 5-HT2A receptors in vitro): 127 to 1200 nM
- Qualitative effect on brain [^18F]FDG uptake (SUVglob maps) ([8]; 1 mg/kg, separately or in combination): no conspicuous effects
- Trend towards relative increase in SUVglob in hippocampus and thalamus ([8]; Experiment 1, 1 mg/kg): ~5%
- [^18F]FDG-PET SUV normalized to whole-brain uptake (SUVglob) ([8]; NAc): 6.2 (0.36) SUV
- [^18F]FDG-PET glucose normalized SUV (SUVgluc) ([8]; NAc, 1 mg/kg): 6.48 (0.93) SUV
- [^18F]FDG-PET SUV normalized to whole-brain uptake (SUVglob) ([8]; OFC): 6.52 (0.15) SUV
- [^18F]FDG-PET glucose normalized SUV (SUVgluc) ([8]; OFC, 1 mg/kg): 6.82 (0.84) SUV
- [^18F]FDG-PET SUV normalized to whole-brain uptake (SUVglob) ([8]; cerebellum): 4.56 (0.23) SUV
- [^18F]FDG-PET glucose normalized SUV (SUVgluc) ([8]; cerebellum, 1 mg/kg): 4.76 (0.64) SUV
- [^18F]FDG-PET SUV normalized to whole-brain uptake (SUVglob) ([8]; hippocampus): 4.95 (0.21) SUV
- [^18F]FDG-PET glucose normalized SUV (SUVgluc) ([8]; hippocampus, 1 mg/kg): 5.2 (0.85) SUV
- [^18F]FDG-PET SUV normalized to whole-brain uptake (SUVglob) ([8]; mPFC): 6.95 (0.34) SUV
- [^18F]FDG-PET glucose normalized SUV (SUVgluc) ([8]; mPFC, 1 mg/kg): 7.3 (1.24) SUV
- [^18F]FDG-PET SUV normalized to whole-brain uptake (SUVglob) ([8]; striatum): 6.91 (0.24) SUV
- [^18F]FDG-PET glucose normalized SUV (SUVgluc) ([8]; striatum, 1 mg/kg): 7.24 (1.07) SUV
- [^18F]FDG-PET SUV normalized to whole-brain uptake (SUVglob) ([8]; thalamus): 6.33 (0.1) SUV
- [^18F]FDG-PET glucose normalized SUV (SUVgluc) ([8]; thalamus, 1 mg/kg): 6.62 (0.86) SUV
- [^18F]FDG-PET SUV normalized to whole-brain uptake (SUVglob) ([8]; visual cortex): 6.27 (0.13) SUV
- [^18F]FDG-PET glucose normalized SUV (SUVgluc) ([8]; visual cortex, 1 mg/kg): 6.57 (0.99) SUV
- [^18F]FDG-PET glucose normalized SUV (SUVgluc) ([8]; whole brain, 1 mg/kg): 5.8 (0.81) SUV
- [^3H]ketanserin specific binding ratio in frontal cortex ([9]; Experiment 1, 1 mg/kg each s.c., 95 min after administration, (cortex-cerebellum)/cerebellum): 2.15 ± 0.39
- Occupancy at 5-HT2A sites ex vivo ([9]; Experiment 1, [^3H]ketanserin): unable to detect any such occupancy
